# Laboratory results taken from patent US7750114B2, “Peptides having a high cysteine content” (priority 2002, dated 2010).
# Bridge positions count the residues as written; N and C are the ends. Ends that are not written are not given here.
# Experiments:
# human lymphocytes = conditions: Büssing A. et al. 1999; cited from earlier work
# [1] = test system: Colon cancer cell line: Colo 205; assay: Living Colo 205 cells by MTT test; type: cell-based, homo sapiens; conditions: 24 h
# Method: After adherence of the cells (incubation 24 h, cell amount 1×10^4 cells per batch), the cells were treated for 24 h with MCS and/or peptides (Hellethionin C (CZT), Hellethionin D (DZT)) and afterwards the percentage of living cells was measured by MTT test.
# The MTT cell growth test was carried out according to Alley et. al. (M. C. Alley et al., Proc. Am. Assoc. Cancer Res., 27:389, 1986; M. C. Alley et al., Cancer Res. 48:589-601, 1988). The finale concentration of 3-(4,5-dimethylthiazol-2-yl)-2,5-diphenyltetrazoliumbromide was 0.4 mg/ml.
# [2] = test system: lung carcinoma cell line: A549; assay: Living A549 cells by AlamarBlue test; type: cell-based, homo sapiens; conditions: 100 μg/ml, after 72 h, FIG. 4
# Method: Cell line: lung carcinoma cell line: A549 (ATCC No. CCL-185™), organism: homo sapiens, literature: Giard D J, et al. J. Natl. Cancer Inst. 51: 1417-1423, 1973.
# After adherence of the cells (incubation 24 h, cell amount 5×10^3 cells per batch), the cells were treated for 72 h with MCS and/or peptides (CZT, DZT) and afterwards the percentage of living cells was measured by AlamarBlue test.
# AlamarBlue™ cell growth test was carried out according to the specifications of the manufacturer (Serotec, Oxford, England, www.serotc.com).
# [3] = test system: murine peritoneal macrophages; assay: Effect on murine peritoneal macrophages (NO, TNF-α, IL-10, survival); type: cell-based, CD1 mice; conditions: 24 hours; for IL-10 / TNF-α: control 0; for NO: control 1.1; for Survival rate: control 100
# Method: Murine peritoneal macrophages extracted from CD1 mice were used. A peritoneal flushing was carried out using 5 ml of PBS. After three washing processes with RPMI 1640 the cells were put into a 96-well culturing plate with a concentration of 1×10^6 cells/ml (200 μl/well) in 10% FCS-RPMI 1640 medium and kept for 24 hours. After the incubation the cells were washed three times with RPMI 1640 and resuspended in 10% FCS-RPMI 1640 medium (100 μl/well) in the absence (non stimulated) or in the presence (stimulated) of different stimulants. After 24 hours of incubation NO, IL-10 and TNF-α were measured in the culture supernatant.
# [4] = mammals; cited from earlier work
# [5] = test system: primary human immune cells; assay: Effect on the cytokine production of primary human immune cells (Quantikine ELISA in lymphocyte cultures); type: cell-based; conditions: for TGF-β2 concentration: control 9; for IL-4 concentration: control 34; for IL-3 concentration: control 41; for IL-2R concentration: control 44; for IL-10 concentration: control 69; for IL-6R concentration: control 171
# Method: The effect of the peptide HT-A on the cytokine production of primary human immune cells was determined through the measurement of the concentration of cytokines in lymphocyte cultures obtained from human blood. Dosages of 4-200 μg/ml of the hellethionins were used, which were obtained by adding the calculated amounts in the form of a stock solution. The concentration of individual cytokines in the treated and control samples is determined by means of the commercially available “Quantikine” ELISA plates from R&D Biosystems, Minneapolis, USA. The results were compared with control samples, i.e. with the lymphocyte culture without addition of the peptide.
# In the case of the lymphocyte cultures (4 million cells per ml) treated with 4 μg and 200 μg of the peptide HT-A, respectively, the following cytokine (and cytokine receptor) concentrations [pg/ml] were obtained in comparison with the control sample (without peptide): […]
substance,measurement,setting,value
purothionins,toxic effect on human lymphocytes,human lymphocytes,do not exert a toxic effect
"KSCCRNTLARNCYNACRFTGGSQPTCGILCDCIHVTTTTCPSSHPS (disulfide 3-40, 4-32, 12-30, 16-26) [HT-D, hellethionin-D]",Living Colo 205 cells,[1]; 50 μg/ml,92.15%
same,Living Colo 205 cells,"[1]; 100 μg/ml, listed as DZT",about 50%
same,Living Colo 205 cells,"[1]; 100 μg/ml, listed as DZT peptide",58.66%
same,living cells (A549),[2],about 50%
same,IL-10,[3]; 5 μg/ml,0 pg/mL
same,TNF-α,[3]; 5 μg/ml,18 pg/mL
same,NO,[3]; 5 μg/ml,0.8 µM
same,Survival rate,[3]; 5 μg/ml,87.6%
same,IL-10,[3]; 100 μg/ml,0 pg/mL
same,TNF-α,[3]; 100 μg/ml,0 pg/mL
same,NO,[3]; 100 μg/ml,1.3 µM
same,Survival rate,[3]; 100 μg/ml,42.8%
viscotoxins,toxic effect on human lymphocytes,human lymphocytes,toxic
same,LD50,[4],0.1 to 1 mg/kg
"KSCCRNTLGRNCYNACRLTGTSQATCATLCDCIHVTATTCRPPYPS (disulfide 3-40, 4-32, 12-30, 16-26) [HT-C, hellethionin-C]",Survival rate,[3]; 5 μg/ml,80.3%
same,Survival rate,[3]; 100 μg/ml,10.7%
hellethionin-A [HT-A],TGF-β2 concentration,[5]; 4 μg/ml peptide,105 pg/mL
same,IL-4 concentration,[5]; 4 μg/ml peptide,19 pg/mL
same,IL-3 concentration,[5]; 4 μg/ml peptide,26 pg/mL
same,IL-2R concentration,[5]; 4 μg/ml peptide,30 pg/mL
same,IL-10 concentration,[5]; 4 μg/ml peptide,288 pg/mL
same,IL-6R concentration,[5]; 4 μg/ml peptide,100 pg/mL
same,TGF-β2 concentration,[5]; 200 μg/ml peptide,45 pg/mL
same,IL-4 concentration,[5]; 200 μg/ml peptide,12 pg/mL
same,IL-3 concentration,[5]; 200 μg/ml peptide,8 pg/mL
same,IL-2R concentration,[5]; 200 μg/ml peptide,67 pg/mL
same,IL-10 concentration,[5]; 200 μg/ml peptide,12 pg/mL
same,IL-6R concentration,[5]; 200 μg/ml peptide,65 pg/mL
same,"expression of pro-inflammatory cytokines IL-2, IL-3, IL-4 and γ-IFN",[5]; 4 and 200 μg/ml,inhibiting the expression
same,influence on production of IL-6 or TNF-α and expression of the IL-1 receptor,[5]; 4 and 200 μg/ml,no significant influence
same,"effect on cytokines acting suppressively, IL-10 and TGF-β2",[5]; more intense at 4 μg/ml than at 200 μg/ml,shows a stimulation
